As a reminder, the IC50 is the concentration that inhibits the measured activity by half. A word on the inhibition in vivo: it is the share of the control response that was lost under treatment. The bioavailability is the share of a dose that reaches the circulation, judged against a reference dose that is usually intravenous. A higher bioavailability goes with good availability. In general, half-life refers to how long it takes for the measured level to halve. The low end stands for rapid decline, the high end for slow decline. As usually defined, the Tmax is the time at which the peak concentration occurs. What is called Cmax is the maximum level reached in the sampled fluid or tissue.

One series concerns HCC827. Description: cells. The note with it: Homo sapiens, HCC827, 72 h.
In a further series the test system is A-431. Description: cells. The following applies: Homo sapiens, A-431, 72 h.
For another series, the system named is MDA-MB-453. Description: Antiproliferative activity against human MDA-MB-453 cells after 72 hrs by CCK8 assay. The format is functional, cell-based. The following applies: MDA-MB-453, 72 h. Background: Tetrazolium dyes change colour on reduction, which living cells bring about.
For series [1], the system named is NCI-H1975. The series is described as follows: cells. The note with it: Homo sapiens, NCI-H1975, 72 h.
Description: Antiproliferative activity against human NCI-H1975 cells harboring EGFR T790M mutant after 72 hrs by CCK8 assay
The subject of series [2] is NCI-H1975. Description: Antitumor activity against human NCI-H1975 cells harboring EGFR T790M mutant xenografted in po dosed BALB/c mouse assessed as tumor growth inhibition administered via gavage qd or qod for 14 days measured at 7 days post last dose. The format is functional, organism-based. On the technique in general: In xenograft studies the graft and the host belong to different species.

The test system of series [3] is NCI-H1975. Description: Antitumor activity against human NCI-H1975 cells harboring EGFR T790M mutant xenografted in BALB/c mouse assessed as tumor growth inhibition at 20 mg/kg, po administered daily via gavage for 14 days measured at 7 days post last dose relative to control. The format is functional.
Series [4] addresses Epidermal growth factor receptor (Homo sapiens, UniProt P00533). The series is described as follows: Inhibition of recombinant human GST-tagged EGFR catalytic domain (668 to 1210 residues) expressed in baculovirus expression system using TK-biotin peptide as substrate measured after 10 mins by HTRF assay. For orientation: TR-FRET usually uses a lanthanide donor and a delayed reading to cut background.

Series [5] is described as follows: Oral bioavailability in Sprague-Dawley rat at 10 mg/kg. The format is ADME, organism-based. The note with it: in vivo.
Series [6] can be described thus: Half life in Sprague-Dawley rat at 5 mg/kg, iv or 10 mg/kg, po. The format is ADME, organism-based. The following applies: in vivo.
Series [7] in a line: Tmax in Sprague-Dawley rat at 5 mg/kg, iv or 10 mg/kg, po. The format is ADME, organism-based. The note with it: in vivo.
Series [8] is described as follows: Cmax in Sprague-Dawley rat at 5 mg/kg, iv or 10 mg/kg, po. The format is ADME, organism-based. The following applies: in vivo.
For series [9], the system named is NCI-H1975. The series is described as follows: Antitumor activity against human NCI-H1975 cells harboring EGFR T790M mutant xenografted in BALB/c mouse assessed as tumor growth inhibition at 80 mg/kg, po administered every other day via gavage for 14 days measured at 7 days post last dose relative to control. The format is functional.
Series [10] concerns NCI-H1975. The series is described as follows: Antitumor activity against human NCI-H1975 cells harboring EGFR T790M mutant xenografted in BALB/c mouse assessed as tumor growth inhibition at 20 mg/kg, po administered every other day via gavage for 14 days measured at 7 days post last dose relative to control. The format is functional.
The test system of series [11] is NCI-H1975. Description: Antitumor activity against human NCI-H1975 cells harboring EGFR T790M mutant xenografted in BALB/c mouse assessed as tumor growth inhibition at 5 mg/kg, po administered daily via gavage for 14 days measured at 7 days post last dose relative to control. The format is functional.

Chain of Epidermal growth factor receptor (P00533 whole entry, the tested form may be a part): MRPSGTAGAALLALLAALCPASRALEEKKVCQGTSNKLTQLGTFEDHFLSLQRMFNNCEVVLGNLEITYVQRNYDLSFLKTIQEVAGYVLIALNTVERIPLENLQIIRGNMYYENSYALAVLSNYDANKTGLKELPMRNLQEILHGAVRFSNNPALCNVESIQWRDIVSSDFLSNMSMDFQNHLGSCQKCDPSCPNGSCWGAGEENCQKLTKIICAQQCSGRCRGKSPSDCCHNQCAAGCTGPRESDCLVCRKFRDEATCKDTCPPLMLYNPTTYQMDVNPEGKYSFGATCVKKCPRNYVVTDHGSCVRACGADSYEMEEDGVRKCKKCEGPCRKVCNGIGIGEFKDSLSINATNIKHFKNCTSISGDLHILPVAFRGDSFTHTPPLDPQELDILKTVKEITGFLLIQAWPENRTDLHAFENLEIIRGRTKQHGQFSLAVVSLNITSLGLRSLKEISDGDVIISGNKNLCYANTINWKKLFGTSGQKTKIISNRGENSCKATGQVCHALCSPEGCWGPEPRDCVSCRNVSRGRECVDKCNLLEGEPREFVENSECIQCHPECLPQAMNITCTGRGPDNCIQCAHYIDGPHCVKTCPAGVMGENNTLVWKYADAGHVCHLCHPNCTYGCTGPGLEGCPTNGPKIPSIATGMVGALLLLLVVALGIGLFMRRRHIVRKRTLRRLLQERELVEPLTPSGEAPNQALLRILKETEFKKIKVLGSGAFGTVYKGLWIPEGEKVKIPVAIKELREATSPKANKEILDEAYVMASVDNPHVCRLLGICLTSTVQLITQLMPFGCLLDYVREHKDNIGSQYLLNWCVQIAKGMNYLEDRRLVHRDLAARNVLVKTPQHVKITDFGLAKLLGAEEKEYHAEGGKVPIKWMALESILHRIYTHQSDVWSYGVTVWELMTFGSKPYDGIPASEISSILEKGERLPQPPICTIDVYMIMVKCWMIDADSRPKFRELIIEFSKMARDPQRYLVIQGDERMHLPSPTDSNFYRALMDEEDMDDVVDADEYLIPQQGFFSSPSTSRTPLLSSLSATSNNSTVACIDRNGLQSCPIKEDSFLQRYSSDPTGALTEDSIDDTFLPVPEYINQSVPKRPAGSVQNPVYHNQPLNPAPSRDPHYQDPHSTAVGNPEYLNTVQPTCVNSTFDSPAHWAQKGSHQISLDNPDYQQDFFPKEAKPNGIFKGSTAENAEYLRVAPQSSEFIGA
Description for A-431: Antiproliferative activity against human A431 cells harboring wild-type EGFR after 72 hrs by CCK8 assay
Description for HCC827: Antiproliferative activity against human HCC827 cells harboring EGFR L858R mutant after 72 hrs by CCK8 assay

Regarding `CC(C)OCCOc1cc2ncnc(Nc3ccc(F)c(Cl)c3)c2cc1NC(=O)/C=C/CN(C)C`, the figures for the IC50 with HCC827 and in the series on A-431 were 0.55 nM and 5.86 nM, respectively.
Turning to `C=C(Cl)C(=O)Nc1cc2c(Nc3ccc(F)c(Cl)c3)ncnc2cc1OCCOCC`, the IC50 with MDA-MB-453 turned out to be 3.71 nM; in the series on NCI-H1975 [1], 37.1 nM; in the series with HCC827 it was 33.2 nM; in the series with A-431 it was 369 nM.
Regarding `COCCCOc1cc2ncnc(Nc3ccc(F)c(Cl)c3)c2cc1NC(=O)/C=C/CN(C)C`, the IC50 in the series with HCC827 is 0.29 nM.
As to `C#CC(=O)Nc1cc2c(Nc3ccc(F)c(Cl)c3)ncnc2cc1OCCOCC`, the IC50 amounted to 3.42 nM in the series on MDA-MB-453, 49.3 nM in the series on NCI-H1975 [1], 1.46 nM with HCC827 and 11.4 nM in the series on A-431.
The matching figures for `CCOCCOc1cc2ncnc(Nc3ccc(OCC(F)(F)F)c(Cl)c3)c2cc1NC(=O)/C=C/CN(C)C`: 2.55 nM, 107 nM, 2.9 nM and 64.1 nM.
On to `CCOCCOc1cc2ncnc(Nc3ccc(F)c(Cl)c3)c2cc1NC(=O)/C=C/CN(C)C` [listing 1 of 2 here], for which the TGI entry in the series with NCI-H1975 [2] is “Dose-dependent effect”.
For the compound `COC[C@@H](C)Oc1cc2ncnc(Nc3ccc(F)c(Cl)c3)c2cc1NC(=O)/C=C/CN(C)C`, the IC50 with NCI-H1975 [1] is 49.9 nM; in the series on A-431, 43 nM.
As to `C=CC(=O)Nc1cc2c(Nc3ccc(F)c(Cl)c3)ncnc2cc1OCCOCC`, the IC50 in the series with MDA-MB-453 worked out at 5.67 nM; with NCI-H1975 [1], 51.8 nM; in the series with HCC827, 0.15 nM; in the series with A-431, 6.01 nM.
Turning to `CCOCCOc1cc2ncnc(Nc3ccc(F)c(Cl)c3)c2cc1NC(=O)/C=C/Cl`, the IC50 was 14.9 nM in the series on MDA-MB-453, 7.43 nM with NCI-H1975 [1] and 289 nM in the series on A-431.
Turning to `CCOCCOc1cc2ncnc(Nc3ccc(F)c(Cl)c3)c2cc1NC(=O)/C=C\Cl`, the IC50 was found to be 1.6 nM with NCI-H1975 [1] and 24 nM in the series with A-431.
On to `CCOCCOc1cc2ncnc(Nc3ccc(OCCOC)c(Cl)c3)c2cc1NC(=O)/C=C/CN(C)C`, for which the IC50 in the series with MDA-MB-453 was found to be 1.65 nM; in the series with NCI-H1975 [1], 7.3 nM; in the series on HCC827, 3.43 nM; with A-431 it was 20.1 nM.
For the compound `CCCOCCOc1cc2ncnc(Nc3ccc(F)c(Cl)c3)c2cc1NC(=O)/C=C/CN(C)C`, the IC50 in the series with HCC827 is 0.55 nM; in the series with A-431 it was 8.15 nM.
Take `C=CS(=O)(=O)Nc1cc2c(Nc3ccc(F)c(Cl)c3)ncnc2cc1OCCOCC`: the IC50 is 130 nM in the series on MDA-MB-453, 13.7 nM in the series on NCI-H1975 [1], 3.95 nM in the series with HCC827 and 3.37 nM in the series on A-431.
For `CCOCCOc1cc2ncnc(Nc3ccc(F)c(Cl)c3)c2cc1NC(=O)/C=C/C(F)(F)F`, in that order: 18.3 nM, 27.6 nM, 0.15 nM and 148 nM.
`CCOCCOc1ccc(Nc2ncnc3cc(OCCOCC)c(NC(=O)/C=C/CN(C)C)cc23)cc1Cl`: the IC50 in the series on MDA-MB-453 worked out at 2.52 nM; with NCI-H1975 [1], 6.17 nM; with HCC827 it was 0.34 nM; with A-431, 13.7 nM.
The matching figures for `CCOCCOc1cc2ncnc(Nc3ccc(F)c(Cl)c3)c2cc1NC(=O)/C=C/Br`: 3.99 nM, 8.21 nM, 4.86 nM and 297 nM.
Turning to `CCOCCOc1cc2ncnc(Nc3ccc(OCc4cccc(F)c4)c(Cl)c3)c2cc1NC(=O)/C=C/CN(C)C`, the half-inhibitory concentration (IC50) in the series with NCI-H1975 [1] came out at 49.7 nM; with A-431, 79.5 nM.
With `CN(C)C/C=C/C(=O)Nc1cc2c(Nc3ccc(F)c(Cl)c3)ncnc2cc1O[C@H]1CCOC1` [AFATINIB], the inhibition in vivo at 20 mg/kg in the series on NCI-H1975 [3] was determined as 67.6%.
For `CCOCCOc1cc2ncnc(Nc3ccc(F)c(Cl)c3)c2cc1NC(=O)/C=C/C(=O)OCC`, the IC50 with MDA-MB-453 was found to be 21.6 nM; in the series on NCI-H1975 [1], 35.2 nM; in the series on HCC827, 0.987 nM; in the series on A-431, 207 nM.
For the compound `COC[C@H](C)Oc1cc2ncnc(Nc3ccc(F)c(Cl)c3)c2cc1NC(=O)/C=C/CN(C)C`, the values for the IC50 in the series with NCI-H1975 [1] and in the series on A-431 were 66.5 nM and 16.7 nM, respectively.
For `CCOCCOc1cc2ncnc(Nc3ccc(F)c(Cl)c3)c2cc1NC(=O)/C=C/CN(C)C` [listing 2 of 2 here], the IC50 in the series with MDA-MB-453 was determined as 0.62 nM; in [4] it was 0.69 nM; in the series with HCC827, 0.31 nM; in the series with A-431 it was 1.52 nM. In series [5], the bioavailability was determined as 46%. Also, the half-life in series [6] is 6.8 h. Also, the Tmax in series [7] worked out at 4 h. Moreover, the Cmax in [8] was 0.0923 µg/mL. Also, the inhibition in vivo at 80 mg/kg with NCI-H1975 [9] was 95.1%. In addition, the inhibition in vivo at 20 mg/kg with NCI-H1975 [10] turned out to be 82%. The inhibition in vivo at 5 mg/kg with NCI-H1975 [11] worked out at 73.2%.
In turn, `CCOCCOc1cc2ncnc(Nc3ccc(F)c(Cl)c3)c2cc1NC(=O)/C=C/CN(C)C.O=C(O)/C=C\C(=O)O` yielded a bioavailability in series [5] of 70%.
Take `CCOCCOc1cc2ncnc(Nc3ccc(F)c(Cl)c3)c2cc1NC(=O)/C=C\C#N`: the IC50 in the series with MDA-MB-453 is 0.68 nM; with NCI-H1975 [1] it was 18.4 nM; in the series on HCC827 it was 5.56 nM; in the series on A-431, 94.8 nM.
The matching figures for `C=C(Br)C(=O)Nc1cc2c(Nc3ccc(F)c(Cl)c3)ncnc2cc1OCCOCC`: 15.1 nM, 39.4 nM, 6.39 nM and 572 nM.
On to `CCOCCOc1cc2ncnc(Nc3ccc(NCCS(C)(=O)=O)c(Cl)c3)c2cc1NC(=O)/C=C/CN(C)C`, for which the IC50 with MDA-MB-453 was 12.7 nM; in the series on NCI-H1975 [1], 65.6 nM; with HCC827 it was 0.53 nM; with A-431 it was 6.48 nM.
For `C=C(F)C(=O)Nc1cc2c(Nc3ccc(F)c(Cl)c3)ncnc2cc1OCCOCC`, in that order: 58.2 nM, 72.5 nM, 0.53 nM and 54.5 nM.

(Values after ChEMBL document CHEMBL4330113, “Discovery of new quinazoline derivatives as irreversible dual EGFR/HER2 inhibitors and their anticancer activities - Part 1” (Bioorg Med Chem Lett, 2019).)
